# Assay results reported in ChEMBL document CHEMBL3271982, “Synthesis and antiinflammatory properties of N-substituted 4,5-dioxopyrrolidine-3-carboxanilides” (J Med Chem, 1976).
# Activity calls are given as the source filed them. No cut-off for these calls is given here.
# Columns and labels:
# Rattus norvegicus [1] = test: Antiinflammatory activity in rat assessed as inhibition of carrageenin-induced foot edema at 33 mg/kg, po; type: functional, organism-based; set-up: dose 33 mg/kg
# [2] = Ionization constant, pKa of the compound; type: physicochemical
# Rattus norvegicus [3] = test: Antiinflammatory activity in rat assessed as inhibition of carrageenin-induced foot edema at 100 mg/kg, po; type: functional
SMILES,inhibition (Rattus norvegicus [1]),pKa [2],inhibition in vivo at 100 mg/kg (Rattus norvegicus [3]) [%]
O=C(Nc1ccc(C(F)(F)F)cc1)C1CN(c2ccccc2)C(=O)C1=O (stereo unspecified),Active,,
COc1ccc(NC(=O)C2CN(c3ccccc3)C(=O)C2=O)cc1 (stereo unspecified),Active,,
COc1ccccc1NC(=O)C1CN(c2ccccc2)C(=O)C1=O (stereo unspecified),Active,6.19,
Cc1ccc(NC(=O)C2CN(C)C(=O)C2=O)cc1 (stereo unspecified),Active,5.79,
CCOC(=O)c1ccccc1NC(=O)C1CN(C)C(=O)C1=O (stereo unspecified),Active,6.49,
O=C(Nc1ccccc1Cl)C1CN(c2ccccc2)C(=O)C1=O (stereo unspecified),Active,,
CC(=O)Oc1ccccc1C(=O)O [ASPIRIN],,,50
CN1CC(C(=O)Nc2ccc(Cl)cc2)C(=O)C1=O (stereo unspecified),Active,5.51,
CN1CC(C(=O)Nc2ccc(C(F)(F)F)cc2)C(=O)C1=O (stereo unspecified),Active,,
O=C(Nc1ccccc1)C1CN(c2ccccc2)C(=O)C1=O (stereo unspecified),Active,5.58,
O=C(Nc1ccccc1C(F)(F)F)C1CN(c2ccccc2)C(=O)C1=O (stereo unspecified),Active,5.87,
CN1CC(C(=O)Nc2ccccc2)C(=O)C1=O (stereo unspecified),Active,5.86,
CN1CC(C(=O)Nc2ccc(F)cc2)C(=O)C1=O (stereo unspecified),Active,5.55,
O=C(Nc1ccc(Cl)cc1)C1CN(c2ccccc2)C(=O)C1=O (stereo unspecified),Active,,
COc1ccccc1NC(=O)C1CN(C)C(=O)C1=O (stereo unspecified),Active,6.08,
COc1ccc(NC(=O)C2CN(C)C(=O)C2=O)cc1 (stereo unspecified),Active,5.84,
